# Results taken from patent US6514997B2, “Antipicornaviral compounds and compositions, their pharmaceutical uses, and materials for their synthesis” (Agouron Pharmaceuticals, Inc., priority 1999, dated 2003).
# Where two headings read alike, the source gives them in different places.
# What was measured:
# [1] = system: strains of human rhinovirus (HRV); experiment: Antirhinoviral H1-HeLa cell culture assay (XTT cell protection, EC50), other HRV strains; assay type: cell-based, human rhinovirus in H1-HeLa cells; details: read-out: EC50
# Protocol: (§1) Antirhinoviral H1-HeLa Cell Culture Assay:
# (§2) In this cell protection assay, the ability of compounds to protect cells against HRV infection was measured by the XTT dye reduction method, which is described in Weislow et al., J. Natl. Cancer Inst. (1989), vol. 81, 577-586. H1-HeLa cells were infected with HRV-14 at a multiplicity of infection (m.o.i.) of 0.13 (virus particles/cell) or mock-infected with medium only. Infected or mock-infected cells were resuspended at 8×10^5 cells per mL, and incubated with appropriate concentrations of the compounds to be tested. Two days later, XTT/PMS was added to test plates and the amount of formazan produced was quantified spectrophotometrically at 450/650 nm. […] The therapeutic index (TI) was calculated by dividing the CC50 value by the EC50 value.
# (§3) All strains of human rhinovirus (HRV) for use in this assay were purchased from American Type Culture Collection (ATCC), except for HRV serotype-14 (produced from the infectious cDNA clone constructed by Dr. Robert Rueckert, Institute for Molecular Virology, University of Wisconsin, Madison, Wis.). HRV stocks were propagated and viral assays were performed in H1-HeLa cells (ATCC). Cells were grown in minimal essential medium with 10% fetal bovine serum, available from Life Technologies (Gaithersburg, Md.).
# [2] = Cytotoxicity (CC50) in mock-infected H1-HeLa cells, XTT dye reduction; assay type: cell-based, human; details: human, H1-HeLa cells, mock-infected; line of HRV-14
# Protocol: as §2, with “(1989), vol. 81, 577-586.” left out
# as §3
# (§4) Coxsackievirus types A-21 (CAV-21) and B3 (CVB3) were purchased from American Type Culture Collection (ATCC, Rockville, Md.). Virus stocks were propagated and antiviral assays were performed in H1-HeLa cells (ATCC). Cells were grown in minimal essential medium with 10% fetal bovine serum (Life Technologies, Gaithersburg, Md.). The ability of the compounds of this invention to protect cells against either CAV-21 or CVB3 infection was measured by the XTT dye reduction method. This method is described in Weislow et al., J. Natl. Cancer Inst. […] H1-HeLa cells were infected with CAV-21 or CVB3 at a multiplicity of infection (m.o.i.) of 0.025 or 0.075, respectively, or mock-infected with medium only. H1-HeLa cells were plated at 4×10^4 cells per well in a 96-well plate and incubated with appropriate concentrations of the test compound. One day (CVB3) or two days (CAV-21) later, XTT/PMS was added to test plates and the amount of formazan produced was quantified spectrophotometrically at 450/650 nm. […] The therapeutic index (TI) was calculated by dividing the CC50 by the EC50.
# H1-HeLa cells = experiment: as above; assay type: cell-based, human
# Protocol: as §2, with “(1989), vol. 81, 577-586.” left out
# as §3, §4
# [3] = target: T1, Recombinant rhinovirus 3C protease, serotype 14 (Human rhinovirus 14, UniProt P03303); experiment: Inhibition of rhinovirus 3C protease (FRET assay, kobs/[I]), serotype 14; assay type: biochemical; details: pH 7.6; HRV-14; read-out: kobs/[I] (3C protease inhibition activity)
# T1 construct: Recombinant rhinovirus 3C proteases; made in house
# Protocol: Inhibition of Rhinovirus 3C Protease:
# Stock solutions (50 mM, in DMSO) of various compounds were prepared; dilutions were in the same solvent. Recombinant rhinovirus 3C proteases (see Birch et al., “Purification of recombinant human rhinovirus 14 3C protease expressed in Escherichia coli,” Protein Expr. Pur. (1995), vol. 6(5), 609-618) from serotypes 14, 16, and 2 were prepared by the following standard chromatographic procedures: (1) ion exchange using Q Sepharose Fast Flow from Pharmacia; (2) affinity chromatography using Affi-Gel Blue from Biorad; and (3) sizing using Sephadex G-100 from Pharmacia. Each assay sample contained 2% DMSO, 50 mM tris pH 7.6, 1 mM EDTA, a test compound at the indicated concentration, approximately 1 μM substrate, and 50-100 nM protease. The kobs/I values were obtained from reactions initiated by addition of enzyme rather than substrate. RVP activity was measured in the fluorescence resonance energy transfer assay. The substrate was (N-terminal) DABCYL-([…]-EDANS. In the uncleaved peptide, the EDANS fluorescence was quenched by the proximal DABCYL moiety. When the peptide was cleaved, the quenching was relieved, and activity was measured as an increase in fluorescence signal. The tabulated data in the column designated kobs/[I] were measured from progress curves in enzyme start experiments.
# HRV-14 = experiment: Antirhinoviral H1-HeLa cell culture assay (XTT cell protection, EC50), HRV-14; assay type: cell-based, human rhinovirus (HRV) serotype-14 in H1-HeLa cells; details: Rhinovirus B, HRV14, H1-HeLa
# Protocol: as §1
# as §2, with “(1989), vol. 81, 577-586.” left out
# as §3
# [4] = Human rhinovirus sp., HRV10, H1-HeLa, HRV-10
# T1 sequence (P03303 1538-1719): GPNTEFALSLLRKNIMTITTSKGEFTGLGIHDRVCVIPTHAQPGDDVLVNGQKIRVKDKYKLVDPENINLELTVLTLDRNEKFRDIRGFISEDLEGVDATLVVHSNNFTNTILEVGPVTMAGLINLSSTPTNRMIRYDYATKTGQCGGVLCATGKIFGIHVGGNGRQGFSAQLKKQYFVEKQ
"EC50 (HRV-14; HRV-14, read-out: EC50) [nM]",SMILES,CC50 at 2 days [2] [nM],kinact/KI [3] [M⁻¹ s⁻¹],EC50 (HRV-14) [nM],other results
,"CC[C@@H](C(=O)N[C@H](/C=C/C(=O)OC1CCCC1)C[C@@H]1CCNC1=O)n1cccc(NC(=O)c2cc(Cl)on2)c1=O [Compound 29, trans-(2′S,3″″S,4S)-4-(2′-{3″-[(5′″-Chloroisoxazole-3′″-carbonyl)amino]-2″-oxo-2″H-pyridin-1″-yl}butyrylamino)-5-(2″″-oxopyrroldin-3″″-yl)pent-2-enoic Acid Cyclopentyl Ester]",> 10000,148000,79,"EC50 ([1]; H1-HeLa, HRV-1A): 46 nM; EC50 [1, 4]: 46 nM; CC50 (H1-HeLa cells; line of HRV-1A): > 10000 nM; CC50 (H1-HeLa cells; line of HRV-10): > 10000 nM"
,"Cc1cc(C(=O)Nc2cccn([C@@H](Cc3ccc(F)c(F)c3)C(=O)N[C@H](/C=C/C(=O)OC3CCCC3)C[C@@H]3CCNC3=O)c2=O)no1 [Compound 49, trans-(2′S,3″″″S,4S)-4-[3′-(3″,4″-Difluorophenyl)-2′-(3′″-{[1″″-(5′″″-methylisoxazol-3′″″-yl)methanoyl]amino}-2″″-oxo-2″″H-pyridin-1″″-yl)propanoylamino]-5-(2″″″-oxopyrrolidin-3″″″-yl)pent-2-enoic Acid Cyclopentyl Ester]",> 10000,1.2e+06,4,"EC50 ([1]; H1-HeLa, HRV-1A): 131 nM; EC50 ([1]; H1-HeLa, HRV-2): 83 nM; EC50 ([1]; Human rhinovirus sp., HRV3, H1-HeLa, HRV-3): 41 nM; EC50 ([1]; Human rhinovirus sp., HRV9, H1-HeLa, HRV-9): 95 nM; EC50 [1, 4]: 76 nM; EC50 ([1]; Human rhinovirus sp., HRV16, H1-HeLa, HRV-16): 32 nM; EC50 ([1]; Human rhinovirus sp., HRV25, H1-HeLa, HRV-25): 371 nM; EC50 ([1]; Human rhinovirus sp., HRV39, H1-HeLa, HRV-39): 145 nM; CC50 (H1-HeLa cells; line of HRV-1A): > 10000 nM; CC50 (H1-HeLa cells; line of HRV-2): > 10000 nM; CC50 (H1-HeLa cells; line of HRV-3): > 10000 nM; CC50 (H1-HeLa cells; line of HRV-9): > 10000 nM; CC50 (H1-HeLa cells; line of HRV-10): > 10000 nM; CC50 (H1-HeLa cells; line of HRV-16): > 10000 nM; CC50 (H1-HeLa cells; line of HRV-25): > 10000 nM; CC50 (H1-HeLa cells; line of HRV-39): > 10000 nM"
14,"CCOC(=O)/C=C/[C@H](CCC(N)=O)NC(=O)[C@H](Cc1ccc(F)cc1)n1cccc(NC(=O)OCc2ccccc2)c1=O [Compound 7, trans-(2′S,4S)-4-[2′-(3″-Benzyloxycarbonylamino-2″-oxo-2″H-pyridin-1″-yl)-3′-(4′″-fluorophenyl)propionylamino]-6-carbamoylhex-2-enoic Acid Ethyl Ester]",> 10000,81000,,
> 10000,"CCOC(=O)/C=C/[C@H](CCC(N)=O)NC(=O)Cn1cccc(NC(=O)OCc2ccccc2)c1=O [Compound 17, trans-(4S)-4-[2′-(3″-Benzyloxycarbonylamino-2″-oxo-2″H-pyridin-1″-yl)acetylamino]-6-carbamoylhex-2-enoic Acid Ethyl Ester]",> 10000,348,,
518,"CCOC(=O)/C=C/[C@H](CCC(N)=O)NC(=O)[C@H](Cc1ccccc1)n1cccc(NC(=O)C(C)(C)C)c1=O [Compound 9, trans-(2′S,4S)-6-Carbamoyl-4-{2′-[3″-(2′″,2′″-dimethylpropionylamino)-2″-oxo-2″H-pyridin-1″-yl]-3′-phenylpropionylamino}hex-2-enoic Acid Ethyl Ester]",> 10000,5040,,
,"C#CC[C@@H](C(=O)N[C@H](/C=C/C(=O)O)C[C@@H]1CCNC1=O)n1cccc(NC(=O)c2cc(C)on2)c1=O [Compound 43, trans-(2′S,3′″″S,4S)-4-[2′-(3″-{[1′″-(5″″-Methylisoxazol-3″″-yl)methanoyl]amino}-2′″-oxo-2′″H-pyridin-1′″-yl)pent-4″-ynoylamino]-5-(2′″″-oxopyrrolidin-3′″″-yl)pent-2-enoic Acid]",> 10000,382,> 10000,
24,"CCOC(=O)/C=C/[C@H](CCC(N)=O)NC(=O)[C@H](Cc1ccccc1)n1cccc(NC(=O)c2cc(Cl)on2)c1=O [Compound 30, trans-(2′S,4S)-6-Carbamoyl-4-(2′-{3″-[(5′″-chloroisoxazole-3′″-carbonyl)amino]-2″-oxo-2″H-pyridin-1″-yl}-3′-phenylpropionylamino)hex-2-enoic Acid Ethyl Ester]",> 10000,134000,,
,"CCOC(=O)/C=C/[C@H](C[C@H]1CCNC1=O)NC(=O)[C@H](Cc1ccccc1)n1cccc(NC(=O)OCc2ccccc2)c1=O [Compound 21, trans-(2′S,3′″R,4S)-4-[2′-(3″-Benzyloxycarbonylamino-2″-oxo-2″H-pyridin-1″-yl)-3′-phenylpropionylamino]-5-(2′″-oxopyrrolidin-3′″-yl)pent-2-enoic Acid Ethyl Ester]",> 10000,6340,469,
64,"O=C1OCC/C1=C\[C@H](C[C@@H]1CCNC1=O)NC(=O)[C@H](Cc1ccc(F)cc1)n1cccc(NC(=O)c2cc(Cl)on2)c1=O [Compound 23, trans-(2″S,2″S,3″″″S)-5-Chloroisoxazole-3-carboxylic Acid (1′-{2″-(4′″-fluorophenyl)-1″-[2″″-(2′″″-oxodihydrofuran-3′″″-ylidene)-1″″-(2″″″-oxopyrrolidin-3″″″-ylmethyl)ethylcarbamoyl]ethyl}-2′-oxo-1′,2′′-dihydropyridin-3′-yl)amide]",> 10000,385000,,
,"CCOC(=O)/C=C/[C@H](C[C@@H]1CCNC1=O)NC(=O)[C@H](Cc1ccccc1)n1cccc(NC(=O)OCc2ccccc2)c1=O [Compound 19, trans-(2′S,3′″S,4S)-4-[2′-(3″-Benzyloxy-carbonylamino-2″-oxo-2″H-pyridin-1″-yl)-3′-phenylpropionylamino]-5-(2′″-oxopyrrolidin-3′″-yl)pent-2-enoic Acid Ethyl Ester]",> 10000,380000,3,
